Consider seven cell lines from the supplement of paper PMC10307832.

Holding throughout (experiment): relative viability (nuclei count vs DMSO), 5 days (fraction); higher = more cells survive
Compound in the test “BX 795 + Trametinib”: O=C(NCCCNc1nc(Nc2cccc(NC(=O)N3CCCC3)c2)ncc1I)c1cccs1 [BX 795] + CC(=O)Nc1cccc(-n2c(=O)n(C3CC3)c(=O)c3c(Nc4ccc(I)cc4F)n(C)c(=O)c(C)c32)c1 [Trametinib] (partner 0.02 µM)
The method, boiled down: (§1)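 One day after seeding in 1536-well plates, lung cancer cell lines were dosed by pin tool. Dosing was either single-drug or a fixed anchor-drug dose plus five library-drug doses (not always all listed) in √10 steps. After 5 days, nuclei were stained in one fix-and-stain step and counted on 4× images, and relative viability is the nuclei count of treated wells over that of vehicle wells, given as the median of duplicate plates.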

Compound in the test “BX 795 + Dasatinib”: O=C(NCCCNc1nc(Nc2cccc(NC(=O)N3CCCC3)c2)ncc1I)c1cccs1 [BX 795] + Cc1nc(Nc2ncc(C(=O)Nc3c(C)cccc3Cl)s2)cc(N2CCN(CCO)CC2)n1 [Dasatinib] (partner 0.075 µM)
The method, boiled down:
as §1

Compound in the test “BX 795 + OSI-027”: O=C(NCCCNc1nc(Nc2cccc(NC(=O)N3CCCC3)c2)ncc1I)c1cccs1 [BX 795] + COc1cccc2cc(-c3nc([C@H]4CC[C@H](C(=O)O)CC4)n4ncnc(N)c34)[nH]c12 [OSI-027] (partner 0.5 µM)
The method, boiled down: as §1

Compound in the test “BX 795 + Phenformin”: O=C(NCCCNc1nc(Nc2cccc(NC(=O)N3CCCC3)c2)ncc1I)c1cccs1 [BX 795] + N=C(N)NC(=N)NCCc1ccccc1 [Phenformin] (partner 250 µM)
The method, boiled down:
as §1

Compound in the test “BX 795 + Luminespib”: O=C(NCCCNc1nc(Nc2cccc(NC(=O)N3CCCC3)c2)ncc1I)c1cccs1 [BX 795] + CCNC(=O)c1noc(-c2cc(C(C)C)c(O)cc2O)c1-c1ccc(CN2CCOCC2)cc1 [Luminespib] (partner 0.01 µM)
Summed up:
as §1

NCI-H838: the relative viability came out at 0.5 with BX 795 + Trametinib (first compound 0.04 µM); 0.473 in the test with BX 795 + Trametinib (first compound 0.1265 µM); 0.397 in the test with BX 795 + Trametinib (first compound 0.4 µM); 0.302 in the test with BX 795 + Trametinib (first compound 1.265 µM); 0.29 with BX 795 + Dasatinib (first compound 0.04 µM); 0.367 in the test with BX 795 + Dasatinib (first compound 0.1265 µM). In addition, the relative viability in the test with BX 795 + Dasatinib (first compound 0.4 µM) worked out at 0.261; in the test with BX 795 + Dasatinib (first compound 1.265 µM), 0.231; in the test with BX 795 + OSI-027 (first compound 0.04 µM) it was 0.386; with BX 795 + OSI-027 (first compound 0.1265 µM) it was 0.338; in the test with BX 795 + OSI-027 (first compound 0.4 µM), 0.379; in the test with BX 795 + OSI-027 (first compound 1.265 µM), 0.303. Further, the relative viability stood at 0.494 with BX 795 + Phenformin (first compound 0.04 µM); 0.538 with BX 795 + Phenformin (first compound 0.1265 µM); 0.425 in the test with BX 795 + Phenformin (first compound 0.4 µM); 0.214 in the test with BX 795 + Phenformin (first compound 1.265 µM); 0.255 with BX 795 + Luminespib (first compound 0.04 µM); 0.292 with BX 795 + Luminespib (first compound 0.1265 µM). Moreover, the relative viability was 0.226 in the test with BX 795 + Luminespib (first compound 0.4 µM) and 0.181 with BX 795 + Luminespib (first compound 1.265 µM).

For the cell line NCI-H1355, the relative viability stood at 0.427 with BX 795 + Trametinib (first compound 0.04 µM); 0.344 with BX 795 + Trametinib (first compound 0.1265 µM); 0.44 with BX 795 + Trametinib (first compound 0.4 µM); 0.362 with BX 795 + Trametinib (first compound 1.265 µM); 0.763 with BX 795 + Dasatinib (first compound 0.04 µM); 0.659 with BX 795 + Dasatinib (first compound 0.1265 µM). Further, the relative viability in the test with BX 795 + Dasatinib (first compound 0.4 µM) was found to be 0.684; in the test with BX 795 + Dasatinib (first compound 1.265 µM), 0.664; with BX 795 + OSI-027 (first compound 0.04 µM) it was 0.407; with BX 795 + OSI-027 (first compound 0.1265 µM), 0.405; in the test with BX 795 + OSI-027 (first compound 0.4 µM), 0.44; in the test with BX 795 + OSI-027 (first compound 1.265 µM), 0.379. In addition, the relative viability came to 0.491 in the test with BX 795 + Phenformin (first compound 0.04 µM); 0.455 in the test with BX 795 + Phenformin (first compound 0.1265 µM); 0.465 in the test with BX 795 + Phenformin (first compound 0.4 µM); 0.357 with BX 795 + Phenformin (first compound 1.265 µM); 0.721 with BX 795 + Luminespib (first compound 0.04 µM); 0.787 with BX 795 + Luminespib (first compound 0.1265 µM). Further, the relative viability in the test with BX 795 + Luminespib (first compound 0.4 µM) stood at 0.874; in the test with BX 795 + Luminespib (first compound 1.265 µM), 0.579.

As for NCI-H1395, the relative viability in the test with BX 795 + Trametinib (first compound 0.04 µM) came to 1.05; with BX 795 + Trametinib (first compound 0.1265 µM), 1.06; in the test with BX 795 + Trametinib (first compound 0.4 µM) it was 0.52; with BX 795 + Trametinib (first compound 1.265 µM), 0.925; with BX 795 + Dasatinib (first compound 0.04 µM), 0.368; with BX 795 + Dasatinib (first compound 0.1265 µM), 0.435. Moreover, the relative viability was 0.397 with BX 795 + Dasatinib (first compound 0.4 µM); 0.32 with BX 795 + Dasatinib (first compound 1.265 µM); 0.635 with BX 795 + OSI-027 (first compound 0.04 µM); 0.686 with BX 795 + OSI-027 (first compound 0.1265 µM); 0.482 with BX 795 + OSI-027 (first compound 0.4 µM); 0.498 in the test with BX 795 + OSI-027 (first compound 1.265 µM). Besides, the relative viability with BX 795 + Phenformin (first compound 0.04 µM) is 0.471; with BX 795 + Phenformin (first compound 0.1265 µM), 0.462; with BX 795 + Phenformin (first compound 0.4 µM), 0.458; with BX 795 + Phenformin (first compound 1.265 µM) it was 0.431; in the test with BX 795 + Luminespib (first compound 0.04 µM), 0.641; with BX 795 + Luminespib (first compound 0.1265 µM), 0.634. In addition, the relative viability is 0.471 with BX 795 + Luminespib (first compound 0.4 µM) and 0.555 with BX 795 + Luminespib (first compound 1.265 µM).

Turning to NCI-H1437, the relative viability is 0.496 with BX 795 + Trametinib (first compound 0.04 µM); 0.605 with BX 795 + Trametinib (first compound 0.1265 µM); 0.516 in the test with BX 795 + Trametinib (first compound 0.4 µM); 0.538 in the test with BX 795 + Trametinib (first compound 1.265 µM); 0.308 in the test with BX 795 + Dasatinib (first compound 0.04 µM); 0.467 with BX 795 + Dasatinib (first compound 0.1265 µM). Also, the relative viability stood at 0.396 with BX 795 + Dasatinib (first compound 0.4 µM); 0.379 in the test with BX 795 + Dasatinib (first compound 1.265 µM); 0.879 in the test with BX 795 + OSI-027 (first compound 0.04 µM); 0.89 with BX 795 + OSI-027 (first compound 0.1265 µM); 0.834 in the test with BX 795 + OSI-027 (first compound 0.4 µM); 0.847 in the test with BX 795 + OSI-027 (first compound 1.265 µM). Further, the relative viability in the test with BX 795 + Phenformin (first compound 0.04 µM) turned out to be 0.279; with BX 795 + Phenformin (first compound 0.1265 µM) it was 0.336; with BX 795 + Phenformin (first compound 0.4 µM), 0.328; with BX 795 + Phenformin (first compound 1.265 µM), 0.257; with BX 795 + Luminespib (first compound 0.04 µM), 1.13; with BX 795 + Luminespib (first compound 0.1265 µM), 1.14. Also, the relative viability turned out to be 1.17 with BX 795 + Luminespib (first compound 0.4 µM) and 1.12 with BX 795 + Luminespib (first compound 1.265 µM).

Take NCI-H1650: the relative viability with BX 795 + Trametinib (first compound 0.04 µM) worked out at 0.6; with BX 795 + Trametinib (first compound 0.1265 µM), 0.493; with BX 795 + Trametinib (first compound 0.4 µM) it was 0.551; with BX 795 + Trametinib (first compound 1.265 µM), 0.504; with BX 795 + Dasatinib (first compound 0.04 µM), 0.317; with BX 795 + Dasatinib (first compound 0.1265 µM), 0.276. Also, the relative viability was determined as 0.291 in the test with BX 795 + Dasatinib (first compound 0.4 µM); 0.258 with BX 795 + Dasatinib (first compound 1.265 µM); 0.687 with BX 795 + OSI-027 (first compound 0.04 µM); 0.703 with BX 795 + OSI-027 (first compound 0.1265 µM); 0.53 with BX 795 + OSI-027 (first compound 0.4 µM); 0.414 in the test with BX 795 + OSI-027 (first compound 1.265 µM). The relative viability with BX 795 + Phenformin (first compound 0.04 µM) stood at 0.484; in the test with BX 795 + Phenformin (first compound 0.1265 µM), 0.417; with BX 795 + Phenformin (first compound 0.4 µM) it was 0.393; with BX 795 + Phenformin (first compound 1.265 µM), 0.239; in the test with BX 795 + Luminespib (first compound 0.04 µM) it was 0.212; with BX 795 + Luminespib (first compound 0.1265 µM) it was 0.191. Further, the relative viability amounted to 0.206 with BX 795 + Luminespib (first compound 0.4 µM) and 0.189 with BX 795 + Luminespib (first compound 1.265 µM).

NCI-H1651: the relative viability with BX 795 + Trametinib (first compound 0.04 µM) amounted to 0.847; with BX 795 + Trametinib (first compound 0.1265 µM), 0.87; in the test with BX 795 + Trametinib (first compound 0.4 µM), 0.879; in the test with BX 795 + Trametinib (first compound 1.265 µM), 0.824; with BX 795 + Dasatinib (first compound 0.04 µM), 0.38; with BX 795 + Dasatinib (first compound 0.1265 µM), 0.426. The relative viability with BX 795 + Dasatinib (first compound 0.4 µM) was 0.43; in the test with BX 795 + Dasatinib (first compound 1.265 µM), 0.347; with BX 795 + OSI-027 (first compound 0.04 µM), 0.588; in the test with BX 795 + OSI-027 (first compound 0.1265 µM), 0.716; with BX 795 + OSI-027 (first compound 0.4 µM), 0.576; with BX 795 + OSI-027 (first compound 1.265 µM) it was 0.765. In addition, the relative viability was found to be 0.322 with BX 795 + Phenformin (first compound 0.04 µM); 0.356 with BX 795 + Phenformin (first compound 0.1265 µM); 0.312 with BX 795 + Phenformin (first compound 0.4 µM); 0.24 with BX 795 + Phenformin (first compound 1.265 µM); 0.982 with BX 795 + Luminespib (first compound 0.04 µM); 0.987 in the test with BX 795 + Luminespib (first compound 0.1265 µM). For the same cell line, the figures for the relative viability in the test with BX 795 + Luminespib (first compound 0.4 µM) and with BX 795 + Luminespib (first compound 1.265 µM) were 0.78 and 0.511, respectively.

Take NCI-H1666: the relative viability with BX 795 + Trametinib (first compound 0.04 µM) was 0.856; in the test with BX 795 + Trametinib (first compound 0.1265 µM), 0.884; in the test with BX 795 + Trametinib (first compound 0.4 µM) it was 0.974; with BX 795 + Trametinib (first compound 1.265 µM), 0.802; in the test with BX 795 + Dasatinib (first compound 0.04 µM), 0.847; with BX 795 + Dasatinib (first compound 0.1265 µM), 0.851. The relative viability in the test with BX 795 + Dasatinib (first compound 0.4 µM) was 0.736; in the test with BX 795 + Dasatinib (first compound 1.265 µM) it was 0.569; with BX 795 + OSI-027 (first compound 0.04 µM) it was 0.859; with BX 795 + OSI-027 (first compound 0.1265 µM) it was 0.876; with BX 795 + OSI-027 (first compound 0.4 µM), 0.993; in the test with BX 795 + OSI-027 (first compound 1.265 µM), 0.803. Also, the relative viability in the test with BX 795 + Phenformin (first compound 0.04 µM) is 0.362; in the test with BX 795 + Phenformin (first compound 0.1265 µM) it was 0.568; with BX 795 + Phenformin (first compound 0.4 µM), 0.483; with BX 795 + Phenformin (first compound 1.265 µM), 0.49; in the test with BX 795 + Luminespib (first compound 0.04 µM), 1; with BX 795 + Luminespib (first compound 0.1265 µM), 1.04. Moreover, the relative viability with BX 795 + Luminespib (first compound 0.4 µM) came to 1.07; with BX 795 + Luminespib (first compound 1.265 µM) it was 0.893.
